US7238720B2, “Pharmaceutical use of N-carbamoylazole derivatives” (Eisai R & D Management Co. Ltd., priority 2001, dated 2007)
Blank lines part the entries; values can stand above or below the compound they belong to.

What was measured:
[1] = target: T1, DPP-IV, obtained from porcine kidneys (Sus scrofa, UniProt P22411); experiment: Measurement of DPPIV inhibiting effects (Gly-Pro-p-nitroanilide, absorbance at 405 nm); assay type: biochemical; conditions: porcine kidney DPP-IV 10 mU/mL, 20 min preincubation, Gly-Pro-p-nitroanilide 0.33 mM, pH 7.4
T1 construct: DPP-IV, obtained from porcine kidneys; from tissue; host or cells: porcine kidney
T1 sequence (P22411 whole entry): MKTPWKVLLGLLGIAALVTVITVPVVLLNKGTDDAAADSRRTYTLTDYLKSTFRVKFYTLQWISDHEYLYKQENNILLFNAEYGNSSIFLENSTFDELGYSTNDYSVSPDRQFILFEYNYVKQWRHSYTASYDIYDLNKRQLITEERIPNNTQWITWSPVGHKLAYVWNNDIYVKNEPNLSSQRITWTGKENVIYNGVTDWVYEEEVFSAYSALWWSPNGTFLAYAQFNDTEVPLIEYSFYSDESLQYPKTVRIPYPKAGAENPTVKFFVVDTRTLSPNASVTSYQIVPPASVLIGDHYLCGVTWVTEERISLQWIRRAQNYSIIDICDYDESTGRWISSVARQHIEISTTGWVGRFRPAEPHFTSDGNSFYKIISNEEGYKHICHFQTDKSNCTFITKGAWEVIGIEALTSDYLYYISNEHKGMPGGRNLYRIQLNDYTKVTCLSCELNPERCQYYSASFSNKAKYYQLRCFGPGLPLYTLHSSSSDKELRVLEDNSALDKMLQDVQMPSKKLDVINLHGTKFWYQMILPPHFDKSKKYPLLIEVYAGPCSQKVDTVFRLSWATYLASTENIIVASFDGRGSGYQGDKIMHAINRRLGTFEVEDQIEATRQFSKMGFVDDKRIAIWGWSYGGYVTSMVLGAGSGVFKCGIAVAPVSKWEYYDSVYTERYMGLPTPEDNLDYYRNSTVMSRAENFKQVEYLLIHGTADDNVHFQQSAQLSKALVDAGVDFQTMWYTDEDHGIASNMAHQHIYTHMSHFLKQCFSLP
Description: Measurement of DPPIV Inhibiting Effects
DPP-IV, obtained from porcine kidneys, was dissolved in a reaction buffer solution (50 mM Tris-HCl, pH 7.4, 0.1% BSA) such that the concentration of DPP-IV was at 10 mU/mL. This solution (110 μl) was placed into test tubes, to which compounds to be tested were further added at a quantity of 15 μl and incubated at room temperature for 20 minutes. Twenty-five microliters of a solution in which Gly-Pro-p-nitroanilide was dissolved at 2 mM was added (final concentration, 0.33 mM) to start the enzymatic reaction. The reaction time was 20 minutes. The reaction was stopped by the addition of 25 μl of 1 N phosphoric acid.

[2] = test system: male C57BL/6N mice; experiment: Glucose-tolerance improving effects in normal mice, Experiments 1 and 2 (compound given orally mixed with glucose); assay type: in vivo; conditions: for Blood Glucose, At Indicated Times (min.) After Oral Administration: mean ± standard error
Description: (§1) Test for Identifying Glucose-Tolerance Improving Effects
(§2) Effects on Glucose-Tolerance Ability of Normal Mice
(§3) Animals: Five or six male C57BL/6N mice per group (purchased from Charles River Japan, Inc.).
Compounds to be tested were suspended in a 0.5% aqueous solution of methylcellulose and mixed with an equal volume of a glucose solution, and administered orally at a volume of 10 ml/kg at doses indicated in Tables below. Vehicle control groups received orally a mixture of a 0.5% aqueous solution of methylcellulose and an equal volume of a glucose solution at a volume of 10 ml/kg. Glucose was given at a dose of 2 g/kg.
The blood was drawn from the tail vein immediately before and at 30, 60, and 120 minutes after the administration of mixed solutions of the compounds to be tested and glucose, and subjected to the measurement of the blood glucose value.
(§4) The tail vein of the mice was injured, without anesthesia, with a razor to cause slight bleeding. Ten microliters of blood was collected, and mixed immediately with […] of 0.6 M perchloric acid. The glucose in supernatants obtained by centrifugation (1500 g, 10 min. 4° C., in a cooled centrifuge GS-6KR from Beckman Ltd.) was determined employing a Glucose CII Test Wako kit (Wako Pure Chemical Industries, Ltd.).
(§5) The results are expressed by mean value±standard error.

[3] = test system: male C57BL/6N mice; experiment: Glucose-tolerance improving effects in normal mice, Experiment 3 (compound given orally 30 minutes before glucose); assay type: in vivo; conditions: for Blood Glucose, At Indicated Times After Glucose-Solution Administration (min.): 1 mg/kg oral 30 min before glucose 2 g/kg, mean ± standard error
Description: as §1, §2, §3
The suspension of the compound to be tested and 0.5% methylcellulose solution which was the vehicle control group were administered orally at a volume of 10 ml/kg, and at 30 minutes after administration, a glucose solution was administered orally at a volume of 10 ml/kg. Glucose was given at a dose of 2 g/kg.
The blood was drawn from the tail vein immediately before the administration of the compound to be tested, and immediately before and at 30, 60, and 120 minutes after the administration of the glucose solution, and subjected to the measurement of the blood glucose value.
as §4, §5

Structure (SMILES): CN(C)C(=O)n1cnc(S(=O)(=O)[C@@H]2C[C@@H]3CC[C@H]2C3)n1 (relative stereo) [Example 13, 3-(Endo-norbornan-2-yl)sulfonyl-1-dimethylcarbamoyl-1H-1,2,4-triazole]
IC50 [1]: 164 nM | Blood Glucose, At Indicated Times (min.) After Oral Administration ([2]; Experiment 2, 3 mg/kg oral with glucose 2 g/kg, 0 min (immediately before administration)): 73.9 ± 3.0 mg/dL | Blood Glucose, At Indicated Times (min.) After Oral Administration ([2]; Experiment 2, 3 mg/kg oral with glucose 2 g/kg, 30 min): 177.7 ± 6.3 mg/dL | Blood Glucose, At Indicated Times (min.) After Oral Administration ([2]; Experiment 2, 3 mg/kg oral with glucose 2 g/kg, 60 min): 139.7 ± 6.7 mg/dL | Blood Glucose, At Indicated Times (min.) After Oral Administration ([2]; Experiment 2, 3 mg/kg oral with glucose 2 g/kg, 120 min): 92.5 ± 2.4 mg/dL | Blood Glucose, At Indicated Times (min.) After Oral Administration ([2]; Experiment 2, 10 mg/kg oral with glucose 2 g/kg, 0 min (immediately before administration)): 73.3 ± 2.8 mg/dL | Blood Glucose, At Indicated Times (min.) After Oral Administration ([2]; Experiment 2, 10 mg/kg oral with glucose 2 g/kg, 30 min): 159.9 ± 9.9 mg/dL | Blood Glucose, At Indicated Times (min.) After Oral Administration ([2]; Experiment 2, 10 mg/kg oral with glucose 2 g/kg, 60 min): 129.3 ± 9.1 mg/dL | Blood Glucose, At Indicated Times (min.) After Oral Administration ([2]; Experiment 2, 10 mg/kg oral with glucose 2 g/kg, 120 min): 90.6 ± 3.2 mg/dL | Blood Glucose, At Indicated Times (min.) After Oral Administration ([2]; Experiment 2, 30 mg/kg oral with glucose 2 g/kg, 0 min (immediately before administration)): 70.4 ± 4.0 mg/dL | Blood Glucose, At Indicated Times (min.) After Oral Administration ([2]; Experiment 2, 30 mg/kg oral with glucose 2 g/kg, 30 min): 148.7 ± 5.1 mg/dL | Blood Glucose, At Indicated Times (min.) After Oral Administration ([2]; Experiment 2, 30 mg/kg oral with glucose 2 g/kg, 60 min): 127.3 ± 5.9 mg/dL | Blood Glucose, At Indicated Times (min.) After Oral Administration ([2]; Experiment 2, 30 mg/kg oral with glucose 2 g/kg, 120 min): 93.7 ± 2.3 mg/dL | Blood Glucose, At Indicated Times (min.) After Oral Administration ([2]; Experiment 2, 100 mg/kg oral with glucose 2 g/kg, 0 min (immediately before administration)): 72.0 ± 2.1 mg/dL | Blood Glucose, At Indicated Times (min.) After Oral Administration ([2]; Experiment 2, 100 mg/kg oral with glucose 2 g/kg, 30 min): 147.1 ± 16.2 mg/dL | Blood Glucose, At Indicated Times (min.) After Oral Administration ([2]; Experiment 2, 100 mg/kg oral with glucose 2 g/kg, 60 min): 133.7 ± 8.8 mg/dL | Blood Glucose, At Indicated Times (min.) After Oral Administration ([2]; Experiment 2, 100 mg/kg oral with glucose 2 g/kg, 120 min): 106.2 ± 5.4 mg/dL | effect on glucose-tolerance ability of normal mice ([2]; oral administration, Experiments 1 and 2, result in words): distinct effect

IC50 [1]: 4.34 nM
Structure (SMILES): COCCOc1cccc(C)c1S(=O)(=O)c1ncn(C(=O)N(C)C)n1 [Example 43, 3-[2-(2-Methoxyethyl)oxy-6-methylphenyl]sulfonyl-1-dimethylcarbamoyl-1H-1,2,4-triazole]
Blood Glucose, At Indicated Times After Glucose-Solution Administration (min.) ([3]; 0 min (immediately before glucose)): 89.8 ± 2.1 mg/dL | Blood Glucose, At Indicated Times After Glucose-Solution Administration (min.) ([3]; 30 min): 173.8 ± 5.1 mg/dL | Blood Glucose, At Indicated Times After Glucose-Solution Administration (min.) ([3]; 60 min): 170.8 ± 5.7 mg/dL | Blood Glucose, At Indicated Times After Glucose-Solution Administration (min.) ([3]; 120 min): 112.1 ± 2.5 mg/dL | Blood Glucose, At Indicated Times After Glucose-Solution Administration (min.) ([3]; −30 min (immediately before compound administration)): 70.8 ± 1.5 mg/dL | effect on glucose-tolerance ability of normal mice ([3]; oral administration, result in words): distinct effect

Structure (SMILES): CN(C)C(=O)n1cnc(S(=O)(=O)Cc2ccccc2)n1 [Example 2, 3-Benzylsulfonyl-1-dimethylcarbamoyl-1H-1,2,4-triazole]
IC50 [1]: 1390 nM | Blood Glucose, At Indicated Times (min.) After Oral Administration ([2]; Experiment 1, 30 mg/kg oral with glucose 2 g/kg, 0 min (immediately before administration)): 75.8 ± 1.5 mg/dL | Blood Glucose, At Indicated Times (min.) After Oral Administration ([2]; Experiment 1, 30 mg/kg oral with glucose 2 g/kg, 30 min): 159.8 ± 5.5 mg/dL | Blood Glucose, At Indicated Times (min.) After Oral Administration ([2]; Experiment 1, 30 mg/kg oral with glucose 2 g/kg, 60 min): 133.8 ± 4.1 mg/dL | Blood Glucose, At Indicated Times (min.) After Oral Administration ([2]; Experiment 1, 30 mg/kg oral with glucose 2 g/kg, 120 min): 109.6 ± 3.0 mg/dL
